The record followed here is patent US11433045B2, “Treatment of metabolic disorders in canine animals” (Boehringer Ingelheim Vetmedica GmbH, priority 2014, dated 2022).

For the series the following is noted: various environmental conditions and during production of a medicament.

`N#Cc1ccc([C@@H]2O[C@H](CO)[C@@H](O)[C@H](O)[C@H]2O)cc1Cc1ccc(C2CC2)cc1.O=C(O)[C@@H]1CCCN1`: the “physical and chemical stability” value is “high physical and chemical stability”.
